Results reported in the NIST ThermoML archive (doi:10.1016/j.jct.2018.08.005).
± gives the expanded uncertainty stated by the source.

How the values were obtained:
[1] = molar heat capacity at constant pressure; conditions: 100 kPa, Liquid, DSC
[2] = molar heat capacity at constant pressure; xn = mol fraction of the nth substance listed; conditions: 100 kPa, Liquid, DSC, x2 = 0

CCOC(F)(C(F)(F)C(F)(F)C(F)(F)F)C(F)(C(F)(F)F)C(F)(F)F (configuration not stated) [2-trifluoromethyl-3-ethoxydodecafluorohexane]
[1]
Conditions	molar heat capacity at constant pressure [J/K/mol]
297.91 K	466.29 ± 27
307.79 K	472.92 ± 27
317.66 K	479.54 ± 27
327.54 K	486.58 ± 28
337.42 K	494.03 ± 28
347.29 K	500.66 ± 29
357.17 K	508.53 ± 29
367.05 K	517.23 ± 29
376.92 K	523.85 ± 30
386.8 K	531.72 ± 30

CC(C)OC(C)C [diisopropyl ether]
[1]
Conditions	molar heat capacity at constant pressure [J/K/mol]
290.5 K	211.5 ± 12
295.44 K	213.44 ± 12
300.38 K	215.28 ± 12
305.32 K	217.33 ± 12
310.26 K	219.37 ± 13
315.2 K	221.41 ± 13
320.13 K	223.46 ± 13
325.07 K	225.5 ± 13
330.01 K	227.65 ± 13
334.95 K	229.89 ± 13
339.89 K	232.04 ± 13

CC(C)OC(C)C [diisopropyl ether] + CCOC(F)(C(F)(F)C(F)(F)C(F)(F)F)C(F)(C(F)(F)F)C(F)(F)F
[2]
Conditions	molar heat capacity at constant pressure [J/K/mol]
290.5 K	211.5 ± 12
295.44 K	213.44 ± 12
300.38 K	215.28 ± 12
305.32 K	217.33 ± 12
310.26 K	219.37 ± 13
315.2 K	221.41 ± 13
320.13 K	223.46 ± 13
325.07 K	225.5 ± 13
330.01 K	227.65 ± 13
334.95 K	229.89 ± 13
339.89 K	232.04 ± 13
